Results as given in ChEMBL document CHEMBL1201862, “PubChem BioAssay data set” (2004).
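Assay format: 96-well plates, 48-hour exposure. Here, GI50 denotes the concentration required for 50% inhibition of growth.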 The source made the active and inactive calls. No stated cut-off is given here; in the data, active = GI50 up to about 1.1 µM and inactive = higher.

Tests used:
Test in all cases: NCI tumour cell line growth inhibition, 48 h
[1] = test system: BT-549
[2] = test system: DMS-114
[3] = test system: HOP-18
[4] = test system: KM-20L2
[5] = test system: LXFL 529
[6] = test system: RXF 631
[7] = test system: SNB-78
[8] = test system: XF498
[9] = test system: DMS-273

Compound	GI50 [1]	GI50 [2]	GI50 [3]	GI50 [4]	GI50 [5]	GI50 [6]	GI50 [7]	GI50 [8]	GI50 [9]
CC(=O)OCC1OC(n2cc(F)c(=O)[nH]c2=O)C(OC(C)=O)C1OC(C)=O (stereo unspecified)	68.5 µM (inactive)	39.8 µM (inactive)	38 µM (inactive)	54.1 µM (inactive)	4.31 µM (inactive)	15.5 µM (inactive)	> 100 µM (inactive)	4.57 µM (inactive)	–
Cn1c2c(c3ccccc31)CCN(CCCCN1CCN(c3ccccc3)CC1)C2=O	6.58 µM (inactive)	22.1 µM (inactive)	> 31.6 µM (inactive)	4.29 µM (inactive)	33.9 µM (inactive)	9.66 µM (inactive)	> 100 µM (inactive)	14.1 µM (inactive)	31.4 µM (inactive)
CCCCC(C)/C=C/C(O)=C1\C(=O)O/C(=C\C(=O)O)C1=O (stereo unspecified)	–	> 100 µM (inactive)	> 100 µM (inactive)	> 100 µM (inactive)	> 100 µM (inactive)	> 100 µM (inactive)	> 100 µM (inactive)	> 100 µM (inactive)	> 100 µM (inactive)
COc1ccc2[nH]c3c(C)c4cc[n+](COC(=O)c5ccccc5)cc4c(C)c3c2c1	–	0.279 µM (active)	0.0198 µM (active)	0.282 µM (active)	0.148 µM (active)	0.165 µM (active)	0.897 µM (active)	1.48 µM (inactive)	–
O=C(NCCCCCCCCNC(=O)c1cccc2ccccc12)c1cccc2ccccc12	39.6 µM (inactive)	42.6 µM (inactive)	21 µM (inactive)	> 100 µM (inactive)	> 56.5 µM (inactive)	13.9 µM (inactive)	13.4 µM (inactive)	4.44 µM (inactive)	52.8 µM (inactive)
